Assay results taken from article PMC11686366 (Nature Communications, 2024).

Key:
[1] = test system: thiamine transporters (SLC19A2 and SLC19A3); type: cell-based, human
[2] = target: T1, human SLC19A3 (Homo sapiens, UniProt Q9BZV2); test: Microscale thermophoresis; type: binding; conditions: for Kd: MST
T1 sequence (Q9BZV2 1-496): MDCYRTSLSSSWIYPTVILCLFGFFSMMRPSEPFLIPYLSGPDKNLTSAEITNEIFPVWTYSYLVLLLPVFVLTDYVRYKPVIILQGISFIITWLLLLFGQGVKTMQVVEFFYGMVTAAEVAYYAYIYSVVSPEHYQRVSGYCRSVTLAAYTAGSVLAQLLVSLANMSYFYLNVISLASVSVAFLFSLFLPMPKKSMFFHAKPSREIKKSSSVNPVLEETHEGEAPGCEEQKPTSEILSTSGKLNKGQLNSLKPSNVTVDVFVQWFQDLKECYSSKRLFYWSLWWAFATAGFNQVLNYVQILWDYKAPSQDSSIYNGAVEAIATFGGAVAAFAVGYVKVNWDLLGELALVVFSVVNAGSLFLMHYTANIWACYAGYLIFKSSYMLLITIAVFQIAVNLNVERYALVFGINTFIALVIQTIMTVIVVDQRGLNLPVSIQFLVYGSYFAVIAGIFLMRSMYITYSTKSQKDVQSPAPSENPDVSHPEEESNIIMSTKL

[3] = pyridoxine, bipolar molecule; cited from earlier work
[4] = target: T2, human SLC19A2 (Homo sapiens, UniProt O60779); test: Microscale thermophoresis; type: binding; conditions: MST
T2 sequence (O60779 1-497): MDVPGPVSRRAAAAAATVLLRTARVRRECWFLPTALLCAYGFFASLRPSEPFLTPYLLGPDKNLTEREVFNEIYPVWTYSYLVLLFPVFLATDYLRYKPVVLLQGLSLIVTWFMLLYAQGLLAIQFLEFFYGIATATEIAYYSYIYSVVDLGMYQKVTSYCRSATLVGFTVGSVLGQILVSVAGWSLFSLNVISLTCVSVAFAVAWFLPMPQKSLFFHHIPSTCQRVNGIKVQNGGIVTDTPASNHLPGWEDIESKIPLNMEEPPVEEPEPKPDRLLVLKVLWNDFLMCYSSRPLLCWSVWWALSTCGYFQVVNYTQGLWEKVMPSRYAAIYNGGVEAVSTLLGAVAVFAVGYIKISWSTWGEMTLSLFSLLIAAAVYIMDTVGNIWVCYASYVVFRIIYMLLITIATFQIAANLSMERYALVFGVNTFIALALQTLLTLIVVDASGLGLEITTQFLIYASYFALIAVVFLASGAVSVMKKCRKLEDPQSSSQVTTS

SMILES | Inhibition of 3H-thiamine uptake (in words) [1] | further results
CCN1CCN(Cc2ccc(Nc3ncc(F)c(-c4cc(F)c5nc(C)n(C(C)C)c5c4)n3)nc2)CC1 [abemaciclib] | inhibitor | 
CCCc1ncc(C[n+]2ccccc2C)c(N)n1 [amprolium] | inhibitory effects | Kd ([2]; pH 6.0): ~0.45 µM
Cc1cc(C#N)cc(C)c1Oc1nc(Nc2ccc(C#N)cc2)nc(N)c1Br [etravirine] | inhibitor | 
Cc1cnc(Nc2ccc(OCCN3CCCC3)cc2)nc1Nc1cccc(S(=O)(=O)NC(C)(C)C)c1 [fedratinib] | inhibitory effects | 
CN(C)C(=N)N=C(N)N [metformin] | inhibitory effects | Affinity (in words) ([2]; Supplementary Fig. 12 / 11b): millimolar affinity
N#CCNC(=O)c1ccc(-c2ccnc(Nc3ccc(N4CCOCC4)cc3)n2)cc1 [momelotinib] | inhibitory effects | 
Cc1ncc(C[n+]2csc(CCO)c2C)c(=O)[nH]1 [oxythiamine] | inhibitory effects | 
Cc1ncc(CO)c(CO)c1O [pyridoxine] |  | pKa (lower value) [3]: 5.6
CCc1nc(N)nc(N)c1-c1ccc(Cl)cc1 [pyrimethamine] | inhibitory effects | 
Cc1ncc(C[n+]2csc(CCO)c2C)c(N)n1 [thiamine] |  | Kd ([4]; pH 6.0): ~1.2 µM; Kd ([4]; pH 7.5): ~78.4 µM; Kd ([2]; pH 6.0): ~0.25 µM; Kd ([2]; pH 7.5): ~154 µM
COc1cc(Cc2cnc(N)nc2N)cc(OC)c1OC [trimethoprium] | inhibitory effects | 
